Results taken from patent publication US20240239772A1, “PROTEASE INHIBITORS AND METHODS OF USE” (The Cleveland Clinic Foundation, priority 2021, published 2024).
Where two headings read alike, the source gives them in different places.

Experiments:
SARS-CoV-2 3CLpro = SARS-CoV-2 3CLpro (Severe acute respiratory syndrome coronavirus 2 (2019-nCoV) (SARS-CoV-2), UniProt P0DTD1); test: biochemical; assay type: biochemical; settings: read-out: SARS-CoV-2 IC50
SARS-CoV-1 3CLpro = SARS-CoV-1 3CLpro (Severe acute respiratory syndrome coronavirus (SARS-CoV), UniProt P0C6X7); assay type: biochemical
SARS-CoV-2 [1] = test: microbe, parasite or virus in culture; assay type: cell-based; settings: Severe acute respiratory syndrome coronavirus 2, Vero C1008, 68 h, read-out: CPE Inhibition Assay EC50
SARS-CoV-2 [2] = test: microbe, parasite or virus in culture; assay type: cell-based
[3] = Severe acute respiratory syndrome coronavirus 2, Vero C1008, read-out: Plaque Reduction Assay EC50

| Structure (SMILES) | IC50 (SARS-CoV-2 3CLpro) | IC50 (SARS-CoV-1 3CLpro) | EC50 (SARS-CoV-2 [1]) | EC50 (SARS-CoV-2 [2]; Severe acute respiratory syndrome coronavirus 2, Vero C1008, Vero E6 ACE2 cells, approximately 50 PFUs SARS-CoV-2, read-out: Plaque Reduction Assay EC50) | EC50 (SARS-CoV-2 [2]; [3]) |
| --- | --- | --- | --- | --- | --- |
| O=C(Cn1nnc2ccccc21)N(Cc1cc(F)cc(Cl)c1)c1ccc(-c2cccnc2)cc1 [Compound 31, 2-(Benzotriazol-1-yl)-N-[(3-chloro-5-fluoro-phenyl)methyl]-N-[4-(3-pyridyl)phenyl]acetamide] | 0.119 ± 0.005 µM | 0.074 ± 0.01 µM | – | – | – |
| O=C(Cn1nnc2ccccc21)N(Cc1cccc(Cl)c1)c1ccc(-c2ccc[nH]c2=O)cc1 [Compound 35, 2-(1H-Benzo[d][1,2,3]triazol-1-yl)-N-(3-chlorobenzyl)-N-(4-(2-oxo-1,2-dihydropyridin-3-yl)phenyl)acetamide] | 0.746 ± 0.098 µM | – | 8.77 ± 1.14 µM | 16.7 ± 2.44 µM | – |
| O=C(Cn1nnc2ccccc21)N(Cc1cccc(Cl)c1)c1ccc(-c2cccnc2)cc1 [Compound 28, 2-(Benzotriazol-1-yl)-N-[(3-chlorophenyl)methyl]-N-[4-(3-pyridyl)phenyl]acetamide] | 0.39 ± 0.11 µM | – | 7.61 ± 1.43 µM | – | 11.1 ± 0.37 µM |
| O=C(Cn1nnc2ccccc21)N(Cc1ccc(Cl)c(Cl)c1)c1ccc(-c2cccnc2)cc1 [Compound 30, 2-(Benzotriazol-1-yl)-N-[(3,4-dichlorophenyl)methyl]-N-[4-(3-pyridyl)phenyl]acetamide] | > 200 µM | > 200 µM | – | – | – |
| O=C(Cn1nnc2ccccc21)N(Cc1cccc(Cl)c1)c1ccc(-c2cn[nH]c2)nc1 [Compound 39, 2-(Benzotriazol-1-yl)-N-[(3-chlorophenyl)methyl]-N-[6-(1H-pyrazol-4-yl)-3-pyridyl]acetamide] | 0.333 ± 0.093 µM | 0.336 ± 0.065 µM | 3.81 ± 0.18 µM | – | 4.65 ± 0.11 µM |
| O=C(Nc1ccc(N(Cc2ccsc2)C(=O)Cn2nnc3ccccc32)cc1)C1CC1 [ML300, N-(4-(2-(1H-benzo[d][1,2,3]triazol-1-yl)-N-(thiophen-3-ylmethyl)acetamido)phenyl)cyclopropanecarboxamide, reference compound] | 4.99 ± 0.62 µM | – | 19.9 ± 6.32 µM | – | 28.2 ± 1.3 µM |
| O=C(Cn1nnc2ccccc21)N(Cc1ccsc1)c1ccc(-c2c[nH]cn2)cc1 [Compound 21, 2-(Benzotriazol-1-yl)-N-[4-(1H-imidazol-4-yl)phenyl]-N-(3-thienylmethyl)acetamide] | 0.06 ± 0.01 µM | – | 1.74 ± 0.19 µM | – | 1.75 ± 0.25 µM |
| O=C(Cn1nnc2ccccc21)N(Cc1cccc(Cl)c1)c1ccc(-c2cn[nH]c2)cn1 [Compound 40, 2-(Benzotriazol-1-yl)-N-[(3-chlorophenyl)methyl]-N-[5-(1H-pyrazol-4-yl)-2-pyridyl]acetamide] | 0.171 ± 0.029 µM | 0.214 ± 0.063 µM | 1.91 ± 0.3 µM | – | 3.39 ± 0.21 µM |
| COc1cc(N(Cc2cccc(Cl)c2)C(=O)Cn2nnc3ccccc32)ccc1-c1cn[nH]c1 [Compound 37, 2-(Benzotriazol-1-yl)-N-[(3-chlorophenyl)methyl]-N-[3-methoxy-4-(1H-pyrazol-4-yl)phenyl]acetamide] | 0.328 ± 0.027 µM | – | 2.93 ± 0.28 µM | – | 3.24 ± 0.27 µM |
| O=C(Cn1nnc2ccccc21)N(CC1CCOC1)c1ccc(-c2cccnc2)cc1 (centres unmarked) [Compound 26, 2-(1H-Benzo[d][1,2,3]triazol-1-yl)-N-(4-(pyridin-3-yl)phenyl)-N-((tetrahydrofuran-3-yl)methyl)acetamide] | 23 ± 1.38 µM | 20.5 ± 1.59 µM | – | – | – |
